According to patent US8461181B2, “Fused heterocyclic compound and use thereof” (Sumitomo Chemical Company, Ltd., priority 2009, dated 2013):

The compounds below were run on Aphis gossypii (assay: Test Example 4: foot drench of cucumber seedling in plastic cup, inoculation after 7 days, Aphis gossypii). Details: soil, 144 h, 5 ml drench at foot of cucumber seedling in plastic cup, kept 7 days at 25° C., inoculated, further 6 days.
Assay type: in vivo
Protocol: The formulations of the present active compounds (3) to (7), (17), (19), (20), (22), (29) to (31), (35) to (37), (39), (41) to (45), (47) to (56), (101), (106), (121) to (123), (128), (131), (137), (139), (143), (145), (147), (211) to (213), (216) and (217) obtained by Formulation Example 5 were diluted with water so that the active ingredient concentration was 500 ppm, to prepare diluted solutions for test. Separately, a cucumber seedling (second true leaf spreading stage) planted on a plastic cup was drenched at its foot with each 5 ml of the diluted solutions, and kept in a greenhouse of 25° C. for 7 days. The cucumber leaf surface was inoculated with 30 Aphis gossypii (whole stage), and further kept in the greenhouse for 6 days, then, the number of insect of living Aphis gossypii […] on the leaves of this cucumber was checked, and the control value was calculated according to the following formula. Control value (%)={1-(Cb×Tai)/(Cai×Tb)}×100 Letters in the formula represent the following meanings. Cb: the number of insect before treatment on non-treated district Cai: the number of insect in observation on non-treated district Tb: the number of insect before treatment on treated district Tai: the number of insect in observation on treated district

SMILES | pest or weed control at 500 ppm [%]
CN(C)S(=O)(=O)c1cnccc1-c1nc2cc(C(F)(F)F)cnc2n1C [present active compound 131] | ≥ 90
COC(=O)c1cnccc1-c1nc2cc(C(F)(F)F)cnc2n1C [present active compound 143] | ≥ 90
Cn1c(-c2ccncc2SCCF)nc2cc(C(F)(F)F)cnc21 [present active compound 128] | ≥ 90
COCCSc1cnccc1-c1nc2cc(C(F)(F)F)cnc2n1C [present active compound 147] | ≥ 90
CCOc1cnccc1-c1nc2cc(C(F)(F)F)cnc2n1C [present active compound 39, 2-(3-ethoxypyridin-4-yl)-3-methyl-6-trifluoromethyl-3H-imidazo[4,5-b]pyridine] | ≥ 90
CNC(=O)c1cnccc1-c1nc2cc(C(F)(F)F)cnc2n1C [present active compound 137] | ≥ 90
Cn1c(-c2ccncc2SCC2CC2)nc2cc(C(F)(F)F)cnc21 [present active compound 145] | ≥ 90
Cn1c(-c2ccncc2S(C)(=O)=O)nc2cc(C(F)(F)F)ccc21 [present active compound 19, 2-(3-methanesulfonylpyridin-4-yl)-1-methyl-5-trifluoromethyl-1H-benzimidazole] | ≥ 90
CC(C)Sc1cnccc1-c1nc2cc(C(F)(F)F)cnc2n1C [present active compound 101] | ≥ 90

The compounds below were run on Aphis gossypii (assay: Test Example 3: root immersion of cucumber seedling, Aphis gossypii). Details: 168 h, cucumber root part immersed in 5 ml, inoculated one day after treatment, checked seven days after.
Assay type: in vivo
Protocol: The formulations of the present active compounds (18), (19), (21), (22), (24), (25), (28), (31) to (34), (46), (47), (52), (53), (101) to (104), (106) to (108), (112) to (114), (117), (118), (122), (123), (126), (128), (129), (133), (134), (138), (144), (153) to (155) and (157) obtained by Formulation Example 5 were diluted with water so that the active ingredient concentration was 500 ppm, to prepare diluted solutions for test. A root part of a cucumber seedling (first true leaf spreading stage) from which soil had been washed off was immersed in 5 ml of this diluted solution, and one day after treatment, the cucumber leaf surface was inoculated with 30 Aphis gossypii (whole stage). Further seven days after, the number of insect of living Aphis gossypii […] on the leaves of this cucumber was checked, and the control value was calculated according to the following formula. Control value (%)={1-(Cb×Tai)/(Cai×Tb)}×100 Letters in the formula represent the following meanings. Cb: the number of insect before treatment on non-treated district Cai: the number of insect in observation on non-treated district Tb: the number of insect before treatment on treated district Tai: the number of insect in observation on treated district

SMILES | pest or weed control at 500 ppm [%]
CCNC(=O)c1cnccc1-c1nc2cc(C(F)(F)F)cnc2n1C [present active compound 138] | ≥ 90
CC[S+]([O-])c1cnccc1-c1nc2cc(C(F)(F)F)cnc2n1C (stereo not drawn) [present active compound 52, 2-(3-ethanesulfinylpyridin-4-yl)-3-methyl-6-trifluoromethyl-3H-imidazo[4,5-b]pyridine] | ≥ 90
CCS(=O)(=O)c1cnccc1-c1nc2cc(C(F)(F)F)cnc2n1C [present active compound 53, 2-(3-ethanesulfonylpyridin-4-yl)-3-methyl-6-trifluoromethyl-3H-imidazo[4,5-b]pyridine] | ≥ 90
C=CCSc1cnccc1-c1nc2cc(C(F)(F)F)ccc2n1C [present active compound 134] | ≥ 90
Cn1c(-c2ccncc2SC(F)(F)F)nc2cc(C(F)(F)F)ccc21 [present active compound 122] | ≥ 90
Cn1c(-c2ccncc2SCCF)nc2cc(C(F)(F)F)ccc21 [present active compound 129] | ≥ 90
Cn1c(-c2ccncc2SCCF)nc2cc(C(F)(F)F)cnc21 [present active compound 128] | ≥ 90
CC[S+]([O-])c1cnccc1-c1nc2cc(C(F)(F)F)ccc2n1C (stereo not drawn) [present active compound 21, 2-(3-ethanesulfinylpyridin-4-yl)-1-methyl-5-trifluoromethyl-1H-benzimidazole] | ≥ 90
CCOC(=O)c1cnccc1-c1nc2cc(C(F)(F)F)cnc2n1C [present active compound 144] | ≥ 90
C=CCSc1cnccc1-c1nc2cc(C(F)(F)F)cnc2n1C [present active compound 133] | ≥ 90
COC(=O)CSc1cnccc1-c1nc2cc(C(F)(F)F)cnc2n1C [present active compound 157] | ≥ 90
Cn1c(-c2cc[n+]([O-])cc2)nc2cc(C(F)(F)F)ccc21 [present active compound 24, 1-methyl-2-(1-oxypyridin-4-yl)-5-trifluoromethyl-1H-benzimidazole] | ≥ 90
Cn1c(-c2ccncc2SCC(F)F)nc2cc(C(F)(F)F)cnc21 [present active compound 123] | ≥ 90
Cn1c(-c2ccncc2S(C)(=O)=O)nc2cc(C(F)(F)F)ccc21 [present active compound 19, 2-(3-methanesulfonylpyridin-4-yl)-1-methyl-5-trifluoromethyl-1H-benzimidazole] | ≥ 90
Fc1cnccc1-c1nc2cc(C(F)(F)F)ccc2n1C1CC1 [present active compound 28, 1-cyclopropyl-2-(3-fluoropyridin-4-yl)-5-trifluoromethyl-1H-benzimidazole] | ≥ 90
Cn1c(-c2ccncc2SC(F)(F)C(F)F)nc2cc(C(F)(F)F)cnc21 [present active compound 126] | ≥ 90

Each compound was assayed on Nilaparvata lugens (assay: Test Example 8: spray on rice seedling, 20 first instar larvae of Nilaparvata lugens). Details: 144 h, 10 ml sprayed on rice seedling, 20 first instar larvae released, 6 days at 25° C.
Assay type: in vivo
Protocol: The formulations of the present active compounds (6), (7), (18), (21), (24), (25), (28) to (30), (32), (46), (52), (101) to (103), (105) to (107), (111), (112), (115), (119) to (124), (126) to (130), (133) to (135), (139), (142), (144) to (146), (149) to (151), (153), (154), (216) and (217) obtained by Formulation Example 5 were diluted with water so that the active ingredient concentration was 500 ppm, to prepare spray solutions for test. Separately, on a rice seedling (2 weeks after sowing, second leaf spreading stage) planted on a plastic cup, the drug solutions for test prepared as described above were sprayed each in an amount of 10 ml. After drying of the drug solution sprayed on rice, 20 first instar larvae of Nilaparvata lugens were released, and kept in a greenhouse of 25° C. for 6 days. Thereafter, the number of Nilaparvata lugens […] on rice was checked, and the control value was calculated according to the following formula. Control value (%)={1-(Cb×Tai)/(Cai×Tb)}×100 Letters in the formula represent the following meanings. Cb: the number of insect before treatment on non-treated district Cai: the number of insect in observation on non-treated district Tb: the number of insect before treatment on treated district Tai: the number of insect in observation on treated district

SMILES | pest or weed control at 500 ppm [%]
Cn1c(-c2ccncc2S)nc2cc(C(F)(F)F)cnc21 [present active compound 115] | ≥ 90
CC[S+]([O-])c1cnccc1-c1nc2cc(C(F)(F)F)cnc2n1C (stereo not drawn) [present active compound 52, 2-(3-ethanesulfinylpyridin-4-yl)-3-methyl-6-trifluoromethyl-3H-imidazo[4,5-b]pyridine] | ≥ 90
Cn1c(-c2ccncc2SCC#N)nc2cc(C(F)(F)F)ccc21 [present active compound 154] | ≥ 90
CC[S+]([O-])c1cnccc1-c1nc2cc(C(F)(F)F)ccc2n1C (stereo not drawn) [present active compound 21, 2-(3-ethanesulfinylpyridin-4-yl)-1-methyl-5-trifluoromethyl-1H-benzimidazole] | ≥ 90
CCSc1cnccc1-c1nc2cc(C(F)(F)F)ccc2n1C1CC1 [present active compound 32, 1-cyclopropyl-2-(3-ethylthiopyridin-4-yl)-5-trifluoromethyl-1H-benzimidazole] | ≥ 90
Cn1c(-c2ccncc2C(=O)NCC#N)nc2cc(C(F)(F)F)cnc21 [present active compound 142] | ≥ 90
CC(C)COc1cnccc1-c1nc2cc(C(F)(F)F)cnc2n1C [present active compound 112] | ≥ 90
Cn1c(-c2cc[n+]([O-])cc2)nc2cc(C(F)(F)F)ccc21 [present active compound 24, 1-methyl-2-(1-oxypyridin-4-yl)-5-trifluoromethyl-1H-benzimidazole] | ≥ 90
Cn1c(-c2ccncc2SCC#N)nc2cc(C(F)(F)F)cnc21 [present active compound 153] | ≥ 90
Cn1c(-c2ccncc2OCC(C)(C)C)nc2cc(C(F)(F)F)cnc21 [present active compound 111] | ≥ 90

Each compound was assayed on Nilaparvata lugens (assay: Test Example 9: foot drench of rice seedling, twenty first instar larvae of Nilaparvata lugens). Details: soil, 144 h, 5 ml drench at foot of rice seedling, kept 7 days, twenty first instar larvae released, further 6 days.
Assay type: in vivo
Protocol: The formulations of the present active compounds (6), (7), (18), (22), (25), (30), (33), (46), (47), (53), (101) to (103), (106), (121) to (124), (126) to (128), (135), (139), (216) and (217) obtained by Formulation Example 5 were diluted with water so that the active ingredient concentration was 500 ppm, to prepare diluted solutions for test. Separately, a rice seedling (2 weeks after sowing, second leaf spreading stage) planted on a plastic cup was drenched at its foot with each 5 ml of the diluted solutions, and kept in a greenhouse of 25° C. for 7 days. Twenty first instar larvae of Nilaparvata lugens were released, and further kept in the greenhouse for 6 days, then, the number of insect of living Nilaparvata lugens […] on rice was checked, and the control value was calculated according to the following formula. Control value (%)={1-(Cb×Tai)/(Cai×Tb)}×100 Letters in the formula represent the following meanings. Cb: the number of insect before treatment on non-treated district Cai: the number of insect in observation on non-treated district Tb: the number of insect before treatment on treated district Tai: the number of insect in observation on treated district

SMILES | pest or weed control at 500 ppm [%]
CCS(=O)(=O)c1cnccc1-c1nc2cc(C(F)(F)F)cnc2n1C [present active compound 53, 2-(3-ethanesulfonylpyridin-4-yl)-3-methyl-6-trifluoromethyl-3H-imidazo[4,5-b]pyridine] | ≥ 90
CC[S+]([O-])c1cnccc1-c1nc2cc(C(F)(F)F)ccc2n1C1CC1 (stereo not drawn) [present active compound 33, 1-cyclopropyl-2-(3-ethanesulfinylpyridin-4-yl)-5-trifluoromethyl-1H-benzimidazole] | ≥ 90
C#CCSc1cnccc1-c1nc2cc(C(F)(F)F)cnc2n1C [present active compound 135] | ≥ 90
C[S+]([O-])c1cnccc1-c1nc2cc(C(F)(F)F)ccc2n1C1CC1 (stereo not drawn) [present active compound 30, 1-cyclopropyl-2-(3-methanesulfinylpyridin-4-yl)-5-trifluoromethyl-1H-benzimidazole] | ≥ 90
